Laboratory results reported in patent US12616674B2, “Anti-fibrotic NEU3 inhibitor compounds and methods of use” (The Texas A&M University System, priority 2019, dated 2026).

Key:
[1] = tested on: NEU3-induced IL-6 production by human PBMC; assay: NEU3-induced extracellular IL-6 accumulation by human PBMC (IL-6 concentration assay); assay type: cell-based; conditions: NEU3, serum-free medium, 48 hours
Method: Human peripheral blood was collected from healthy volunteers who gave written consent and with specific approval from the Texas A&M University human subjects review board. Peripheral blood mononuclear cells (PBMC) were isolated from the blood using Ficoll-Paque density gradient centrifugation (95021-205, GE Healthcare, Cincinnati, OH) following the manufacture's protocol. PBMC were cultured at […] in 96-well flat bottom tissue culture plates (type 62406-081; […] Louis, MO)) in a final volume of 200 μl per well. […] The sialidases were diluted in 100 μl of the same medium the cells were in, and added to 100 μl of cells at 1×10^5 cells/ml to make the total volume in a well 200 μl with 1×10^4 cells/well. The cells were then incubated at 37° C. in a humidified incubator with 5% CO2. The culture supernatants were collected after two or five days and assayed using an IL-6 ELISA kit (430501, Biolegend, San Diego, CA) following the manufacturer's protocol, reading absorbance with a SynergyMX plate reader (BioTek, Winooski, VT). Statistics were analyzed using Prism software (Graphpad, La Jolla, CA). At least three different donors were used for each assay. […] IL-6 in the culture supernatant was then assayed as described above. At least three different donors were used for each assay.

[2] = target: T1, recombinant human sialidase NEU3 (Homo sapiens, UniProt Q9UQ49); assay: NEU3-catalyzed L-TGF-β1 activation (TGF-β1 release/concentration assay, active TGF-β1 ELISA); assay type: biochemical; conditions: recombinant human NEU3, L-TGF-β1, PBS pH 6.9, 2 hours 37° C.; read-out: IC50, inhibits human NEU3 in the TGF-β1 concentration assay
T1 construct: purchased Origene TP316537
T1 sequence (Q9UQ49 1-428): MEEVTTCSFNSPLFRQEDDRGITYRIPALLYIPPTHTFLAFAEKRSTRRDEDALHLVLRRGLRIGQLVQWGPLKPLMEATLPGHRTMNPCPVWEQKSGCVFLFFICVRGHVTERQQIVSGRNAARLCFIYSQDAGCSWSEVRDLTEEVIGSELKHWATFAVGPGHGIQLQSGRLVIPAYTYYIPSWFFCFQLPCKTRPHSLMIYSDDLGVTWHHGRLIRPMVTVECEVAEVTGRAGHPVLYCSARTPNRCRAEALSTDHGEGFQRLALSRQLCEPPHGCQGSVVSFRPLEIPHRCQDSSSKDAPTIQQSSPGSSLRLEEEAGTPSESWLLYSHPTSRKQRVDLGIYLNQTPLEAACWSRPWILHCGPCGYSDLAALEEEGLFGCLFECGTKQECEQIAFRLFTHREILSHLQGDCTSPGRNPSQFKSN
Method: To determine if NEU3 can cause latent transforming growth factor-β1 (L-TGF-β1) to release active TGF-β1, 200 ng/ml recombinant human L-TGF-β1 (299-LT/CF, R&D Systems) was incubated with varying concentrations of recombinant human NEU3 (TP316537, Origene) in a total volume of 100 μl of PBS pH 6.9 in a 96-well microplate (651261, Greiner Bio-one, Monroe, NC). The microplates were covered with aluminum foil and incubated at 37° C. for 2 hours. Following incubation, the reaction mixtures were assayed using a TGF-β1 ELISA kit (DY240, R&D Systems) following the manufacturer's protocol with the exception that the reaction mixtures were not processed for acid treatment, so as to measure only active TGF-β1 and not total TGF-β1. The absorbance was read with a SynergyMX plate reader (BioTek, Winooski, VT).
To determine the ability of compounds 1-31 to inhibit human recombinant NEU3 in-vitro, compounds were dissolved in 5 ml water to 20 mM in 15 ml tubes (89039-664, VWR, Radnor, PA), with the exception that 4-hydroxypyridine-2-carboxylic acid, nicotinic acid, and 4-aminopicolinic acid were dissolved in 50 μl DMSO to 2 M, and this was then added to 4.95 ml of water to make a 20 mM stock, and O-(tetrahydro-2H-pyran-2yl) hydroxylamine and salicylic acid were dissolved in 50 μl methanol to 2 M, and this was then added to 4.95 ml of water to make a 20 mM stock. All stocks were stored at 4° C. and used within 2 weeks of preparation. A 10-fold dilution series of the compounds starting at 2 mM were made in PBS pH 6.9 in 1.7 ml clear microtubes (22-281, Genesee Scientific). 100 μl of diluted compound was added to the well of a 96 well plate and then 50 μl of 400 ng/ml recombinant human sialidase NEU3 (TP316537, Origene) in PBS pH 6.9 was added to each well (50 μl PBS pH 6.9 for the control), and the plate was incubated for 30 minutes at 37° C. 50 μl of 800 ng/ml L-TGF-β1 (299-LT/CF, R&D Systems) in PBS pH 6.9 was then added to the well. The plate was covered with aluminum foil and incubated for 2 hours at 37° C., and released active TGF-β1 was assayed as described above.

Compound	IC50 [1] [nM]	IC50 [2] [nM]
CN1CCC(N)CC1C(=O)O (stereo not drawn) [Compound 26, 2-piperidinecarboxylic acid, 4-amino-1-methyl]	0.01	< 0.01
COC(=O)c1ccccn1 [Compound 6, methyl picolinate]	> 100000	0.014
CC(=O)c1ccccn1 [Compound 5, 2-acetylpyridine]	32000	42
